The values that follow come from ChEMBL document CHEMBL1145498, “A systematic interaction map of validated kinase inhibitors with Ser/Thr kinases” (Proc Natl Acad Sci U S A, 2007).

The structures appear in SMILES notation.

Assay [1] deals with 5'-AMP-activated protein kinase catalytic subunit alpha-2 (Homo sapiens) (UniProt P54646).
The target in assay [2] is Calcium/calmodulin-dependent protein kinase type 1D (Homo sapiens) (UniProt Q8IU85).
Assay [3] has as its target Calcium/calmodulin-dependent protein kinase type 1G (Homo sapiens) (UniProt Q96NX5).
Assay [4] has as its target Cyclin-dependent kinase 2 (Homo sapiens, UniProt P24941).
In assay [5] the target is Dual specificity protein kinase CLK2 (Homo sapiens) (UniProt P49760).
The target in assay [6] is T1, Dual specificity mitogen-activated protein kinase kinase 6 (Homo sapiens) (UniProt P52564).
T1 sequence (whole entry): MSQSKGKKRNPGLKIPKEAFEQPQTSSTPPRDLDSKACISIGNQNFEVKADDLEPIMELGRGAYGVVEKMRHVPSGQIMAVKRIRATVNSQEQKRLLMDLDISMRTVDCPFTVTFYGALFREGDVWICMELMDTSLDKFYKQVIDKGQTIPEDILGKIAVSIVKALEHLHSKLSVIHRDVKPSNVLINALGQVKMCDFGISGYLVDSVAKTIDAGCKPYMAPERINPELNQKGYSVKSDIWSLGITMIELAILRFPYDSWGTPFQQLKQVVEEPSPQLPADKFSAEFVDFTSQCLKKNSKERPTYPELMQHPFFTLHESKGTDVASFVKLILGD

The target in assay [7] is Serine/threonine-protein kinase 26 (Homo sapiens) (UniProt Q9P289).
Assay [8] concerns the target T2, Serine/threonine-protein kinase Nek2 (Homo sapiens) (UniProt P51955).
T2 sequence (whole entry): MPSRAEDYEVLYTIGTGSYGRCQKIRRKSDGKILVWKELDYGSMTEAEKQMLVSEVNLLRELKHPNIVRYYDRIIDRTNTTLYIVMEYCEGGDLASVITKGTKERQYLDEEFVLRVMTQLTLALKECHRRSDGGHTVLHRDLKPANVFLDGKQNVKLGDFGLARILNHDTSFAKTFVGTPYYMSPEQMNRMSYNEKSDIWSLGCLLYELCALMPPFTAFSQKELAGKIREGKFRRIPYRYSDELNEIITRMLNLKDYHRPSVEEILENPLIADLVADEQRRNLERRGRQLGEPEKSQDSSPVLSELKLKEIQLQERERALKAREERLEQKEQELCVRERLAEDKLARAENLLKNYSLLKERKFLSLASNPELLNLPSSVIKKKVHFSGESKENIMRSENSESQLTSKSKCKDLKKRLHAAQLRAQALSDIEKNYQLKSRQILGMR

The target of assay [9] is Serine/threonine-protein kinase OSR1 (Homo sapiens) (UniProt O95747).
Assay [10] addresses Serine/threonine-protein kinase PAK 5 (Homo sapiens) (UniProt Q9P286).
The target of assay [11] is T3, Serine/threonine-protein kinase PLK4 (Homo sapiens) (UniProt O00444).
T3 sequence (whole entry): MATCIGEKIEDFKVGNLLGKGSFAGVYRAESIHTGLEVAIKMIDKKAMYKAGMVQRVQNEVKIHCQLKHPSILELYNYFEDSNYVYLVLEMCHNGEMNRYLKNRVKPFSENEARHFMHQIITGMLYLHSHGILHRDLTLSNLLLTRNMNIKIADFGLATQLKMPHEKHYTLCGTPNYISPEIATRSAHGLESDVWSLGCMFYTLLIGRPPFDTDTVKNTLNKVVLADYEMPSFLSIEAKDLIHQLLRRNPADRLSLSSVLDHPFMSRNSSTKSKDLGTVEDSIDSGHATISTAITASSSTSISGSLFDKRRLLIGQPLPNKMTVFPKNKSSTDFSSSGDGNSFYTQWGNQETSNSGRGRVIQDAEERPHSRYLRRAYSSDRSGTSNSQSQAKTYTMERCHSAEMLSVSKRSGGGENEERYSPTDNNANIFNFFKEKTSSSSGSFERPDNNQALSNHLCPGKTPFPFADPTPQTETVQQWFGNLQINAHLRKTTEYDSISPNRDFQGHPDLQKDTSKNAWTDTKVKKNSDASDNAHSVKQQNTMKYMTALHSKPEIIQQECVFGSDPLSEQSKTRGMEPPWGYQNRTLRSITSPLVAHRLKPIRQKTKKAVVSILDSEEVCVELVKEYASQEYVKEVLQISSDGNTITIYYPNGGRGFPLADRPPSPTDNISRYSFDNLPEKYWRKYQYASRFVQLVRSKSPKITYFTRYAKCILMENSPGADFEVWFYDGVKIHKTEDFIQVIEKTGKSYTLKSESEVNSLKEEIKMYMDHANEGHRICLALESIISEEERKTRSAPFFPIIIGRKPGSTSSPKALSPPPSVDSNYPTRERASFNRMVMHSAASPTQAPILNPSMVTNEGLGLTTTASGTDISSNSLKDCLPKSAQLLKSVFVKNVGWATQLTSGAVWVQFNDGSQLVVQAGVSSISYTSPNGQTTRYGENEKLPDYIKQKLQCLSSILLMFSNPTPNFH

The target in assay [12] is Serine/threonine-protein kinase RIO2 (Homo sapiens) (UniProt Q9BVS4).
Assay [13] has as its target Serine/threonine-protein kinase 16 (Homo sapiens) (UniProt O75716).
Assay [14] concerns the target T4, Serine/threonine-protein kinase VRK3 (Homo sapiens) (UniProt Q8IV63).
T4 sequence (whole entry): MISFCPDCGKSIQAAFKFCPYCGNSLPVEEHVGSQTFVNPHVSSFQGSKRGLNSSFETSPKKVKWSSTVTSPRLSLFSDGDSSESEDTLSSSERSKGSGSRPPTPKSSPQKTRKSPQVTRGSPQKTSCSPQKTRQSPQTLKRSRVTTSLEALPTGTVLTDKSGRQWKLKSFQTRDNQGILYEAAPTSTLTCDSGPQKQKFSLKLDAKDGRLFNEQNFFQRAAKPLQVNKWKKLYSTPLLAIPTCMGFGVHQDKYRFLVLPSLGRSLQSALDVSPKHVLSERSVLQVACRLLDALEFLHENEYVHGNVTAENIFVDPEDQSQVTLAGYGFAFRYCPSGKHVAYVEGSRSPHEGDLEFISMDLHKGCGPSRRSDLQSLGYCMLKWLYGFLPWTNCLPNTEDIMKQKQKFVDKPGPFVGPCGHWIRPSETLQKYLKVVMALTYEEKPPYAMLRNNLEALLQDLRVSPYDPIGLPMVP

Assay [15] addresses Serine/threonine-protein kinase 25 (Homo sapiens) (UniProt O00506).

Sequence of Calcium/calmodulin-dependent protein kinase type 1G (Homo sapiens) (Q96NX5 whole entry): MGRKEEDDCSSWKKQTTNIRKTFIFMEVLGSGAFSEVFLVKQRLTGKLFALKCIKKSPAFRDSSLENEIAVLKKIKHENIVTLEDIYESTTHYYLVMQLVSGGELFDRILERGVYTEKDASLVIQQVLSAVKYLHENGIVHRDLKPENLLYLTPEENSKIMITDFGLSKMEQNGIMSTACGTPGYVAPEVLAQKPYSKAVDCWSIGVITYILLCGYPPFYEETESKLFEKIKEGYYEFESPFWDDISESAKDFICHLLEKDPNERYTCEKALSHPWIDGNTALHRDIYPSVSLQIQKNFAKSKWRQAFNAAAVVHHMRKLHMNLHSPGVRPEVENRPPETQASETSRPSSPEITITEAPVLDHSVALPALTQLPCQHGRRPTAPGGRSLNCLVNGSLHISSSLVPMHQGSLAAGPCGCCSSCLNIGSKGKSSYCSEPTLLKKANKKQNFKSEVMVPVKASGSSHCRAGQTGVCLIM
Sequence of Serine/threonine-protein kinase 25 (Homo sapiens) (O00506 whole entry, looked up): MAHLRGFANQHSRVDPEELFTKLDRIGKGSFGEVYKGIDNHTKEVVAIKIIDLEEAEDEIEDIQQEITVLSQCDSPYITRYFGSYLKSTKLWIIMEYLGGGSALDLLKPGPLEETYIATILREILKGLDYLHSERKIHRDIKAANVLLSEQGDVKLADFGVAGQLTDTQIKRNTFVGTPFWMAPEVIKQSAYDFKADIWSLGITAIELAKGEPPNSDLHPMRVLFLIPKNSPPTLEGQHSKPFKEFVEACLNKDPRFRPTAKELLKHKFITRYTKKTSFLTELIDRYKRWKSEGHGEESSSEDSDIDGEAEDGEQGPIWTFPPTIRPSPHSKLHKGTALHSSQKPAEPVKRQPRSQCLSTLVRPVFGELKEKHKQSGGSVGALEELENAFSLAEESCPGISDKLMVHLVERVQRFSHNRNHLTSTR
Sequence of Serine/threonine-protein kinase OSR1 (Homo sapiens) (O95747 2-527 limits assumed): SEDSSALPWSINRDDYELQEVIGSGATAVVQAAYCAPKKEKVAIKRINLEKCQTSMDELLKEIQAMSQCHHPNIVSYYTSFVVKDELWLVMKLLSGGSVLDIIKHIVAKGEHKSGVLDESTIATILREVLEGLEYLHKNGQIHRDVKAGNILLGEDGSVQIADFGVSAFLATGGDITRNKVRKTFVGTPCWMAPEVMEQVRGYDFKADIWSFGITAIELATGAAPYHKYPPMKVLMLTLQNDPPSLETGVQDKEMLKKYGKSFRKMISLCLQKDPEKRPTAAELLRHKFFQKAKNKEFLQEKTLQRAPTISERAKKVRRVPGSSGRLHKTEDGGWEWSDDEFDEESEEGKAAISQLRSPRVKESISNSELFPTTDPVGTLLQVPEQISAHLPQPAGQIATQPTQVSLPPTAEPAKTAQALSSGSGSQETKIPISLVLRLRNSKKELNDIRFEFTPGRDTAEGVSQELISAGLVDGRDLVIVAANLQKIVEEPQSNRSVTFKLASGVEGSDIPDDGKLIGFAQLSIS
Sequence of Serine/threonine-protein kinase 26 (Homo sapiens) (Q9P289 2-416 limits assumed): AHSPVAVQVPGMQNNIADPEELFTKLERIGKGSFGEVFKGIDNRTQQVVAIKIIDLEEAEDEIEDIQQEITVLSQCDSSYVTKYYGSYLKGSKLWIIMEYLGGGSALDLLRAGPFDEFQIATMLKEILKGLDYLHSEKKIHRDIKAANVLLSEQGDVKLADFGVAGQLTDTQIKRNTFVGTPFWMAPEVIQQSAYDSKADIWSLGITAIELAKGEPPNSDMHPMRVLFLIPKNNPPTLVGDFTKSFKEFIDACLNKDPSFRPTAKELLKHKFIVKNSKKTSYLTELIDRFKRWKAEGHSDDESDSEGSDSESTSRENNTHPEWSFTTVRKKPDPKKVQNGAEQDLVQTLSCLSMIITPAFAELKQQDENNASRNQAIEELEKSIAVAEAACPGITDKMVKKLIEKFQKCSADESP
Sequence of Dual specificity protein kinase CLK2 (Homo sapiens) (P49760 whole entry, looked up): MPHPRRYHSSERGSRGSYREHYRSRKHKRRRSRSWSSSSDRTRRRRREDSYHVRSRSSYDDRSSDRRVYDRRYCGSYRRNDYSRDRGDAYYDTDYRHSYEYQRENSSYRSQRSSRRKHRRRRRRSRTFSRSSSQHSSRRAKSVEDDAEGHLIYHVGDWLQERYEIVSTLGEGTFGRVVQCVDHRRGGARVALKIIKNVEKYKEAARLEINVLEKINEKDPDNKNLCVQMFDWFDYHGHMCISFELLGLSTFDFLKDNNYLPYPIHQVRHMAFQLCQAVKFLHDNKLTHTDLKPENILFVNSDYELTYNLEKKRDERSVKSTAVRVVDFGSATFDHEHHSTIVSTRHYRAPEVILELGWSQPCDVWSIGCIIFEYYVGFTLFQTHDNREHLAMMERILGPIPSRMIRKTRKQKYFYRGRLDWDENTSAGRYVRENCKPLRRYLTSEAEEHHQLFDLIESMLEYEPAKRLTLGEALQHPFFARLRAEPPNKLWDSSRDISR
Sequence of Serine/threonine-protein kinase PAK 5 (Homo sapiens) (Q9P286 whole entry, looked up): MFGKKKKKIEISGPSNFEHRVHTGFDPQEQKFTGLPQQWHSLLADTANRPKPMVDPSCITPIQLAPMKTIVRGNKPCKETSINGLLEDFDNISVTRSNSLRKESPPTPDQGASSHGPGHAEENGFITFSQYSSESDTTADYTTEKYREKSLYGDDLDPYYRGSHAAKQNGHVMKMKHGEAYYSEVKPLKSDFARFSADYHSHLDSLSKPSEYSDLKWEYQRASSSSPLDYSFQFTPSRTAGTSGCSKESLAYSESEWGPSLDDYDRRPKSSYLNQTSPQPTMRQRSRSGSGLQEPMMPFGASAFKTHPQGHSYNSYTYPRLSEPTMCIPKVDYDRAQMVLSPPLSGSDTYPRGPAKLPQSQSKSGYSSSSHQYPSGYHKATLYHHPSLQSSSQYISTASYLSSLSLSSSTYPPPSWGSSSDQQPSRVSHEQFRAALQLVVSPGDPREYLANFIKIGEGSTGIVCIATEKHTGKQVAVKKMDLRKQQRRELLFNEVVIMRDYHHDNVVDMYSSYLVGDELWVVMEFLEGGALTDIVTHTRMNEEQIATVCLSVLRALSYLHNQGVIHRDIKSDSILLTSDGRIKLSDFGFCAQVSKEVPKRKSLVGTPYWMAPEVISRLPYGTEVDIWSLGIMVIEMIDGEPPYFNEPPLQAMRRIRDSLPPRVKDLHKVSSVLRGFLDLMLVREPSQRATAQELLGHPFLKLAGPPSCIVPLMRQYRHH
Sequence of Serine/threonine-protein kinase 16 (Homo sapiens) (O75716 whole entry): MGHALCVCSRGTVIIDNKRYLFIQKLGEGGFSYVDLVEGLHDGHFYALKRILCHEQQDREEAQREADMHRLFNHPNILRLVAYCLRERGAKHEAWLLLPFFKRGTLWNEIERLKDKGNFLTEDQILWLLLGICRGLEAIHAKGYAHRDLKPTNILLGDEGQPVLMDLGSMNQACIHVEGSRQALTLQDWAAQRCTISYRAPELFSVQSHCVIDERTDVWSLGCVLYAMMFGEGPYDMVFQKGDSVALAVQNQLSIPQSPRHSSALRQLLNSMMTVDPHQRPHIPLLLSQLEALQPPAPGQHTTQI
Sequence of 5'-AMP-activated protein kinase catalytic subunit alpha-2 (Homo sapiens) (P54646 whole entry, looked up): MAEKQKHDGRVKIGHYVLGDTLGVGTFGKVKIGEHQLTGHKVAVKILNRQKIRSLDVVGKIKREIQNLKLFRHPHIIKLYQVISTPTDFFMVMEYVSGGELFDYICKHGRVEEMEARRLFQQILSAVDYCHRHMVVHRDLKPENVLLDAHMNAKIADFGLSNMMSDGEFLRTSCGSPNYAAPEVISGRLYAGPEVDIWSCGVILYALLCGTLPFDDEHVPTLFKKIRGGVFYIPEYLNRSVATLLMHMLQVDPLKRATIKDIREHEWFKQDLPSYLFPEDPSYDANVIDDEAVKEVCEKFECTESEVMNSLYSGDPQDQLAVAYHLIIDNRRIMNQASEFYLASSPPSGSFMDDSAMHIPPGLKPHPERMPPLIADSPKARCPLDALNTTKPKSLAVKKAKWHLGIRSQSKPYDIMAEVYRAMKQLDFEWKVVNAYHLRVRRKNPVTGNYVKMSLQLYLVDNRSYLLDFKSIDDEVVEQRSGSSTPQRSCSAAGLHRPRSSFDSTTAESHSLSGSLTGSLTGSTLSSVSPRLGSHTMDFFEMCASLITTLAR
Sequence of Serine/threonine-protein kinase RIO2 (Homo sapiens) (Q9BVS4 whole entry, looked up): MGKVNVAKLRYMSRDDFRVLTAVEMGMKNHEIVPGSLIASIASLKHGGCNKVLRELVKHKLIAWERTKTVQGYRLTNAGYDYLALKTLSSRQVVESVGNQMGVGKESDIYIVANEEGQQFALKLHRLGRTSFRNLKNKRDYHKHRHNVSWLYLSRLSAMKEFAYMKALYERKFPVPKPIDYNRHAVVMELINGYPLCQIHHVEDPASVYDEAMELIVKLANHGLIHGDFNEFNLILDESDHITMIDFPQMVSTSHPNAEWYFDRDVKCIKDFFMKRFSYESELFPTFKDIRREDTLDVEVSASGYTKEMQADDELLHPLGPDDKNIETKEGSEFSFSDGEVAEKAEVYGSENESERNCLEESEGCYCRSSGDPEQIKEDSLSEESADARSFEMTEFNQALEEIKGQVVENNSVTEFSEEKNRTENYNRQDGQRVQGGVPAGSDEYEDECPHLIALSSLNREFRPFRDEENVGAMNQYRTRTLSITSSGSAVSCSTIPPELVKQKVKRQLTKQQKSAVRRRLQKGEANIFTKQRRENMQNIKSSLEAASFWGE
Sequence of Calcium/calmodulin-dependent protein kinase type 1D (Homo sapiens) (Q8IU85 whole entry, looked up): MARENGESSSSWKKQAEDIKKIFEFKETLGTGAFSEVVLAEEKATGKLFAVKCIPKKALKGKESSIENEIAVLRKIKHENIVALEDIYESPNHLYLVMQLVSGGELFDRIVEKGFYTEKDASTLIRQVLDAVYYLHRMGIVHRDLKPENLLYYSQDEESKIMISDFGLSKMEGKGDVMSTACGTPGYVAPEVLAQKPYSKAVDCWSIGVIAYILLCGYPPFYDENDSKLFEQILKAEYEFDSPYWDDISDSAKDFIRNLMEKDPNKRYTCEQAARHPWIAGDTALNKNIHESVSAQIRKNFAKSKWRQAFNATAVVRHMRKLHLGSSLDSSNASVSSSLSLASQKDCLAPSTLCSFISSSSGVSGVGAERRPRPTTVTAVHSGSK

One may read the ΔTm as the shift of the melting midpoint relative to a reference. Turning to `Cn1cc(C2=C(c3cn(CCCN)c4ccccc34)C(=O)NC2=O)c2ccccc21`, the ΔTm in assay [1] worked out at 1.4 °C; in assay [2] it was 0.3 °C; in assay [3], 0.3 °C; in [4], 3 °C; in assay [5], 5.6 °C; in assay [6], 0.8 °C. Also, the ΔTm was 2.1 °C in assay [7]; 0.9 °C in assay [8]; -0.1 °C in assay [9]; 1.4 °C in assay [10]; 1.8 °C in [11]; 0.5 °C in assay [12]. Moreover, the shift in melting temperature (ΔTm) worked out at 4.3 °C in assay [13], 0.9 °C in assay [14] and 2.3 °C in assay [15].
`O=c1cc(-c2ccc(O)cc2)oc2cc(O)cc(O)c12`: the ΔTm worked out at 1.5 °C in assay [1]; 1 °C in [2]; 0.9 °C in assay [3]; 2.3 °C in assay [4]; 2.8 °C in [5]; 2.2 °C in [6]. The ΔTm in [7] worked out at 3.1 °C; in assay [8], 1.4 °C; in assay [9], 2.2 °C; in assay [10] it was 0.4 °C; in assay [11] it was 5.2 °C; in assay [12], 0.2 °C. Moreover, the results for the thermal shift (ΔTm) in assay [13], in [14] and in assay [15] were 4.8 °C, 0.2 °C and 4.9 °C, respectively.
For `N#C/C(=C1/Nc2ccccc2S1)c1ccnc(NCCc2cccnc2)n1`, the ΔTm was 6 °C in [1]; 1.4 °C in assay [2]; 2.3 °C in assay [3]; 6.3 °C in [4]; 4.4 °C in assay [5]; 3.5 °C in assay [6]. Further, the shift in melting temperature (ΔTm) in assay [7] turned out to be 2 °C; in assay [8], 1.9 °C; in assay [9], 1.4 °C; in [10] it was 1.8 °C; in [11], 5.2 °C; in assay [12], 7 °C. Besides, the ΔTm in assay [13] was found to be 5.5 °C; in assay [14], 0.9 °C; in [15], 0.8 °C.
Turning to `CC(C)N(CCO)c1nc(Nc2cccc(Cl)c2)c2ncn(C(C)C)c2n1`, the thermal shift (ΔTm) is 0.2 °C in [1]; 0.4 °C in [2]; -0.1 °C in [3]; 4.5 °C in assay [4]; 5.8 °C in assay [5]; 0.9 °C in assay [6]. The ΔTm is 2.8 °C in assay [7]; 0.7 °C in assay [8]; 1.3 °C in assay [9]; 3 °C in assay [10]; 1.2 °C in assay [11]; 0.1 °C in assay [12]. The ΔTm in assay [13] is 3.1 °C; in assay [14], 0.4 °C; in [15], 3.4 °C.
Take `N#C/C(=C\c1ccc(O)c(O)c1)C(=O)NCc1ccccc1`: the ΔTm in assay [1] was -0.2 °C; in assay [2], 0.2 °C; in [3] it was 0.1 °C; in [4], 0.9 °C; in assay [5], 0.7 °C; in [6], 0.4 °C. The ΔTm in [7] was determined as 0.1 °C; in assay [8], 0.7 °C; in [9], 0.7 °C; in assay [10] it was 0.3 °C; in assay [11], 0.9 °C; in assay [12], 1.5 °C. For the same compound, the values for the ΔTm in [13], in [14] and in [15] were 0.4 °C, -0.2 °C and -0.4 °C, respectively.
In the case of `NC(=O)c1ccc(-c2nc(-c3ccc4c(c3)OCCO4)c(-c3ccccn3)[nH]2)cc1`, the ΔTm in assay [1] was -0.7 °C; in assay [2] it was 0 °C; in assay [3] it was 1 °C; in assay [4], 0.6 °C; in assay [5] it was -0.3 °C; in assay [6], 0.3 °C. Also, the ΔTm in assay [7] was -1.1 °C; in [8], 1.1 °C; in [9], -0.1 °C; in [10], 0.4 °C; in assay [11], 0.1 °C; in [12], 0.7 °C. Also, the ΔTm is 0.1 °C in [13], 0.3 °C in assay [14] and 0 °C in assay [15].
`COc1cc2ncnc(Nc3cccc(Br)c3)c2cc1OC`: the ΔTm was -0.5 °C in assay [1]; 0.3 °C in [2]; 0 °C in assay [3]; 0.1 °C in [4]; 0.7 °C in assay [5]; 0.4 °C in [6]. Also, the shift in melting temperature (ΔTm) in assay [7] stood at 1.2 °C; in assay [8] it was 0.6 °C; in assay [9], 0.6 °C; in assay [10] it was 0.3 °C; in [11], 3.4 °C; in [12], 1.2 °C. Moreover, the values for the ΔTm in [13], in assay [14] and in assay [15] were 0.4 °C, 0.3 °C and 1.4 °C, respectively.
As for `Nc1nc(Nc2ccc(S(N)(=O)=O)cc2)nn1C(=S)Nc1c(F)cccc1F`, the thermal shift (ΔTm) in assay [1] was found to be 10.1 °C; in assay [2], 3.1 °C; in assay [3], 2 °C; in [4], 15.9 °C; in [5], 8.9 °C; in assay [6] it was 7.6 °C. Also, the ΔTm in [7] is 11.1 °C; in [8] it was 2.5 °C; in assay [9], 5.6 °C; in assay [10], 5.5 °C; in assay [11] it was 13.1 °C; in assay [12], -0.4 °C. The ΔTm in [13] was found to be 7.8 °C; in [14], 0.9 °C; in assay [15], 12 °C.
On to `COC1=C2C[C@@H](C)C[C@H](OC)[C@H](O)[C@@H](C)/C=C(\C)[C@H](OC(N)=O)[C@@H](OC)/C=C\C=C(/C)C(=O)NC(=CC1=O)C2=O`, for which the ΔTm was 0.4 °C in assay [1]; 0.1 °C in assay [2]; 0.2 °C in assay [3]; 0.5 °C in [4]; -0.1 °C in assay [5]; 0 °C in assay [6]. Besides, the ΔTm is -0.4 °C in assay [7]; 0.5 °C in assay [8]; 0.8 °C in [9]; 0 °C in [10]; 0.2 °C in assay [11]; -0.6 °C in assay [12]. In addition, the figures for the ΔTm in assay [13], in assay [14] and in [15] were 0.4 °C, -0.7 °C and -0.6 °C, respectively.
